“And” between values parts separate entries of the source, which are not always exact repeats. Equal entries are not always repeated. Where two headings read alike, the source gives them in different places.
Key:
[1] = Nonclinical pharmacokinetics in rats; parameters: species or system rat; conditions: in vivo
Description: (§1) A sandwich immunoassay was developed using an affinity purified goat polyclonal antibody, specific to h-SCP that was pre-coated onto a microplate with integrated electrodes. h-SCP molecules present in the sample will bind to the capture polyclonal antibody coated on the plate. After washing away any unbound substances, a sulfo-tagged mouse monoclonal anti-h-SCP antibody was added. This conjugated antibody will bind to the h-SCP molecules captured on the microplate and the quantity of analyte was determined by electrochemiluminescence. The amount of signal generated is directly proportional to the h-SCP concentration in the sample or standard. The standard curve range is 3.125-1600 pg/mL with a quantifiable range from 10-800 pg/mL. A sample volume of 25 μL (in duplicate) is required for this assay. This immunoassay is specific for human and dog stresscopin and human urocortin III (h-UCN3). […] After completion of the analysis, based on a comparison of reference standards between the ELISA and HPLC method, a correction factor of 1.57 was applied to all bioanalytical data.
(§2) The nonclinical pharmacokinetics of h-SCP (SEQ ID NO:1) and pegylated stresscopin-like peptides were studied in rats, dogs, and cynomolgus monkeys (cyno). Nonclinical pharmacokinetic studies focused on characterization of IV infusion at pharmacologically relevant dose levels, supplemented with IV and SC bolus and toxicokinetic analysis.

[2] = Nonclinical pharmacokinetics in cynomolgus monkeys; conditions: cynomolgus monkey, in vivo
Description: as §1, §2

male dogs = assay: GLP cardiovascular safety study in male dogs; format: in vivo, dog
Description: The NOAEL of 33.3 ng/kg/min was determined in a GLP cardiovascular safety study in male dogs, which is considered to be the most relevant and sensitive species for cardiovascular drugs.
A NOAEL of 33.3 ng/kg/min was determined in a GLP cardiovascular safety study in male dogs, which is considered to be the most relevant and sensitive species for cardiovascular drugs. […] Based on these values a starting dose of 0.1 ng/kg/min was selected.

[3] = system: subjects with heart failure; assay: Echocardiography substudy in heart failure subjects; format: in vivo, human
Description: An echocardiography substudy was conducted to examine the impact of h-SCP (SEQ ID NO:1) on cardiodynamic parameters. Five subjects elected to participate in the echocardiography substudy. One subject received placebo and 4 subjects received h-SCP (SEQ ID NO:1) at doses ranging from 9 to 45 ng/kg/min during their last 2.5-hour infusion period when the echocardiogram was obtained. […] Because of the small number of subjects who participated in this substudy and the varied dose administered the results are not conclusionary, but mainly indicative of the effect.

m-CRHR2b = m-CRHR2b (Mus musculus, UniProt Q60748); conditions: m-CRHR2b transfected CHO-K1 cells (Lewis et al., 2001); cited from earlier work
[4] = female, rat IV infusion 3 hours, F, 83.3 ng/kg/min
[5] = female, rat IV infusion 3 hours, F, 167 ng/kg/min
[6] = female, rat IV infusion 3 hours, F, 333 ng/kg/min
[7] = male, 3000 ng/kg, rat IV bolus, M, 3,000 ng/kg
[8] = male, 10000 ng/kg, rat IV bolus, M, 10,000 ng/kg
[9] = male, 300000 ng/kg, rat IV bolus, M, 300,000 ng/kg
[10] = male, rat IV infusion 3 hours, M, 83.3 ng/kg/min
[11] = male, rat IV infusion 3 hours, M, 167 ng/kg/min
[12] = male, rat IV infusion 3 hours, M, 333 ng/kg/min
[13] = female, cyno IV infusion 3 hours, F, 16.7 ng/kg/min
[14] = female, cyno IV infusion 3 hours, F, 33.3 ng/kg/min
[15] = female, cyno IV infusion 3 hours, F, 100 ng/kg/min
[16] = male, cyno IV infusion 3 hours, M, 16.7 ng/kg/min
[17] = male, cyno IV infusion 3 hours, M, 33.3 ng/kg/min
[18] = male, cyno IV infusion 3 hours, M, 100 ng/kg/min

Chain of m-CRHR2b (Q60748 1-431 isoform Q60748-2): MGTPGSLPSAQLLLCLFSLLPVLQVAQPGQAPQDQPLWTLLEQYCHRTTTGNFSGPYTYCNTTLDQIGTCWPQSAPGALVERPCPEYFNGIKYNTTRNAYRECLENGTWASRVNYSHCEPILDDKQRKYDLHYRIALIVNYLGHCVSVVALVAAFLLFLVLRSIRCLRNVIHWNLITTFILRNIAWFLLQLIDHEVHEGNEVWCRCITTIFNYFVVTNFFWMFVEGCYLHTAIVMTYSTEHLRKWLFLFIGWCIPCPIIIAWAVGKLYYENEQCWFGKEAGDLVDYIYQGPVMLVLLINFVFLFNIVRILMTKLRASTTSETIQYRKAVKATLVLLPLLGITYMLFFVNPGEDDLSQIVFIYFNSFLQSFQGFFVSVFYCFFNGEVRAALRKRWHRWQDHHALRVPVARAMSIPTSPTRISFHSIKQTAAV

Molecule: H-TKFTLSLDVPTNIMNLLFNIAKAKNLRAQAAANAHLMAQI-NH2 [SEQ ID NO: 1, TKFTLSLDVPTNIMNLLFNIAKAKNLRAQAAANAHLMAQI-NH2]
- AUC(0-inf) [1, 4]: 1.47 ng·h/mL
- Cmax [1, 4]: 0.906 ng/mL
- clearance ([1]; female, rat IV infusion 3 hours, F, 83.3 ng/kg/min, read-out: CL): 107 mL/min/kg
- AUC(0-inf) [1, 5]: 1.15 ng·h/mL
- Cmax [1, 5]: 0.683 ng/mL
- clearance ([1]; female, rat IV infusion 3 hours, F, 167 ng/kg/min, read-out: CL): 271 mL/min/kg
- AUC(0-inf) [1, 6]: 4.45 ng·h/mL
- Cmax [1, 6]: 2.67 ng/mL
- clearance ([1]; female, rat IV infusion 3 hours, F, 333 ng/kg/min, read-out: CL): 130 mL/min/kg
- half-life ([1]; female, rat, iv, t1/2 alpha): 1.9 min
- half-life ([1]; female, rat, iv, t1/2 terminal): 58.2 min
- AUC(0-inf) [1, 7]: 0.522 ng·h/mL
- Cmax [1, 7]: 4.8 ng/mL
- clearance ([1]; male, 3000 ng/kg, rat IV bolus, M, 3,000 ng/kg, read-out: CL): 109 mL/min/kg
- AUC(0-inf) [1, 8]: 1.5 ng·h/mL
- Cmax [1, 8]: 13.6 ng/mL
- clearance ([1]; male, 10000 ng/kg, rat IV bolus, M, 10,000 ng/kg, read-out: CL): 116 mL/min/kg
- Cmax ([1]; male, 50000 ng/kg, rat IV bolus, M, 50,000 ng/kg): 224 ng/mL
- clearance ([1]; male, 50000 ng/kg, rat IV bolus, M, 50,000 ng/kg, read-out: CL): 41.8 mL/min/kg
- AUC(0-inf) [1, 9]: 99.7 ng·h/mL
- Cmax [1, 9]: 780 ng/mL
- clearance ([1]; male, 300000 ng/kg, rat IV bolus, M, 300,000 ng/kg, read-out: CL): 50.1 mL/min/kg
- AUC(0-inf) [1, 10]: 1.24 ng·h/mL
- Cmax [1, 10]: 0.752 ng/mL
- clearance ([1]; male, rat IV infusion 3 hours, M, 83.3 ng/kg/min, read-out: CL): 116 mL/min/kg
- AUC(0-inf) [1, 11]: 2.43 ng·h/mL
- Cmax [1, 11]: 1.53 ng/mL
- clearance ([1]; male, rat IV infusion 3 hours, M, 167 ng/kg/min, read-out: CL): 109 mL/min/kg
- AUC(0-inf) [1, 12]: 4.85 ng·h/mL
- Cmax [1, 12]: 2.86 ng/mL
- clearance ([1]; male, rat IV infusion 3 hours, M, 333 ng/kg/min, read-out: CL): 118 mL/min/kg
- half-life ([1]; rat, alpha-phase half-life (t1/2 alpha)): < 5 min
- time to apparent steady-state plasma concentration after initiation of infusion ([1]; rat, iv): ≤ 2 h
- clearance ([1]; rat, rats, IV bolus, read-out: clearance values): 42 to 116 mL/min/kg
- time to apparent steady-state plasma concentration after initiation of infusion ([2]; iv): ≤ 1 h
- half-life ([2]; monkeys, two-compartment analysis, read-out: alpha-phase half-life (t1/2 alpha)): < 5 min
- clearance ([2]; cynomolgus monkeys, 16.7 to 100 ng/kg/min, read-out: clearance values (CL)): 30 to 40 mL/min/kg
- Vss ([2]; female, iv): 921 mL/kg
- half-life ([2]; female, iv, 33.3 ng/kg/min, cyno IV infusion 3 hours, F, 33.3 ng/kg/min, read-out: t1/2 alpha): 4 min
- half-life ([2]; female, iv, 33.3 ng/kg/min, cyno IV infusion 3 hours, F, 33.3 ng/kg/min, read-out: t1/2 terminal): 14.8 min
- Vd ([2]; female, iv, Vss): 0.848 L/kg
- half-life ([2]; female, iv, t1/2 alpha): 3.1 min
- AUC(0-inf) [2, 13]: 1.31 ng·h/mL
- Cmax [2, 13]: 0.613 ng/mL
- clearance ([2]; female, cyno IV infusion 3 hours, F, 16.7 ng/kg/min, read-out: CL): 39.7 mL/min/kg
- AUC(0-inf) [2, 14]: 2.34 ng·h/mL
- Cmax [2, 14]: 0.958 ng/mL
- clearance ([2]; female, cyno IV infusion 3 hours, F, 33.3 ng/kg/min, read-out: CL): 42.9 mL/min/kg
- Vd ([2]; female, cyno IV infusion 3 hours, F, 33.3 ng/kg/min, read-out: Vss): 0.931 L/kg
- AUC(0-inf) [2, 15]: 7.67 ng·h/mL
- Cmax [2, 15]: 3.16 ng/mL
- clearance ([2]; female, cyno IV infusion 3 hours, F, 100 ng/kg/min, read-out: CL): 39.1 mL/min/kg
- Vss ([2]; male, iv): 899 mL/kg
- half-life ([2]; male, iv, 33.3 ng/kg/min, cyno IV infusion 3 hours, M, 33.3 ng/kg/min, read-out: t1/2 alpha): 3.7 min
- half-life ([2]; male, iv, 33.3 ng/kg/min, cyno IV infusion 3 hours, M, 33.3 ng/kg/min, read-out: t1/2 terminal): 26 min
- Vd ([2]; male, iv, Vss): 0.788 L/kg
- half-life ([2]; male, iv, t1/2 alpha): 2.9 min
- AUC(0-inf) [2, 16]: 1.73 ng·h/mL
- Cmax [2, 16]: 0.873 ng/mL
- clearance ([2]; male, cyno IV infusion 3 hours, M, 16.7 ng/kg/min, read-out: CL): 30.2 mL/min/kg
- AUC(0-inf) [2, 17]: 3.47 ng·h/mL
- Cmax [2, 17]: 1.48 ng/mL
- clearance ([2]; male, cyno IV infusion 3 hours, M, 33.3 ng/kg/min, read-out: CL): 29.2 mL/min/kg
- Vd ([2]; male, cyno IV infusion 3 hours, M, 33.3 ng/kg/min, read-out: Vss): 0.611 L/kg
- AUC(0-inf) [2, 18]: 9.79 ng·h/mL
- Cmax [2, 18]: 4.45 ng/mL
- clearance ([2]; male, cyno IV infusion 3 hours, M, 100 ng/kg/min, read-out: CL): 30.7 mL/min/kg
- upper limit of plasma concentration (male dogs; dog, in vivo): 12.0 ng/mL
- safety margin (male dogs; expected Cpss at 0.1 ng/kg/min versus upper limit in dogs): 1,390 fold
- NOAEL (male dogs; male dogs): 33.3 ng/kg/min
- ejection fraction after infusion ([3]; one subject, 9 ng/kg/min, from 20%): 24.5%
- ejection fraction after infusion ([3]; one subject, 36 ng/kg/min, from 25.0%): 30.3%
- ejection fraction after infusion ([3]; two subjects, 45 ng/kg/min, from 36.0% and from 28.0%, listed as h-SCP): 34.7% and 26.1%

Molecule: CC[C@H](C)[C@H](NC(=O)[C@H](CO)NC(=O)[C@H](CC(C)C)NC(=O)[C@@H]1CCCN1C(=O)[C@@H]1CCCN1C(=O)[C@H](CC(=O)O)NC(=O)[C@@H](N)CC(=O)O)C(=O)N[C@@H](CC(=O)O)C(=O)N[C@@H](CC(C)C)C(=O)N[C@H](C(=O)N[C@@H](Cc1ccccc1)C(=O)N[C@@H](Cc1c[nH]cn1)C(=O)N[C@@H](CC(C)C)C(=O)N[C@@H](CC(C)C)C(=O)N[C@@H](CCCNC(=N)N)C(=O)N[C@H](C(=O)N[C@@H](CC(C)C)C(=O)N[C@@H](CC(C)C)C(=O)N[C@@H](CCC(=O)O)C(=O)N[C@@H](CC(C)C)C(=O)N[C@@H](C)C(=O)N[C@@H](CCCNC(=N)N)C(=O)N[C@H](C(=O)N[C@@H](CCC(N)=O)C(=O)N[C@@H](CO)C(=O)N[C@@H](CCC(N)=O)C(=O)N[C@@H](CCCNC(=N)N)C(=O)N[C@@H](CCC(=O)O)C(=O)N[C@@H](CCCNC(=N)N)C(=O)N[C@@H](C)C(=O)N[C@@H](CCC(=O)O)C(=O)N[C@@H](CCC(N)=O)C(=O)N[C@@H](CC(N)=O)C(=O)N[C@@H](CCCNC(=N)N)C(=O)N[C@H](C(=O)N[C@H](C(=O)N[C@@H](Cc1ccccc1)C(=O)N[C@@H](CC(=O)O)C(=O)N[C@@H](CO)C(=O)N[C@H](C(N)=O)C(C)C)[C@@H](C)CC)[C@@H](C)CC)[C@@H](C)O)[C@@H](C)O)[C@@H](C)O [SEQ ID NO: 114, DDPPLSIDLTFHLLRTLLELARTQSQRERAEQNRIIFDSV-NH2]
- Published pA50 (m-CRHR2b): 10.06^2
